# Experimental data published in patent publication US5972598A, “Methods for preventing multidrug resistance in cancer cells” (priority 1995, dated 1999).
# Entries after “also recorded” stand apart in the source; their conditions may differ. Like-named read-outs stand apart in the source and are kept apart here.
# Key:
# [1] = test system: MDR1; assay: Inhibition of cytotoxic drug (Ara-C) induced MDR1 expression by protein kinase inhibitors; format: cell-based, human; settings: for inhibition of Ara-C induced MDR1 expression: 5 μM
# Protocol: FIG. 5. Effect of protein kinase inhibitors on MDR1 mRNA induction by cytotoxic drugs in H9 cells. […]
# (Commercially-available kits (for example, from GIBCO/BRL, Gaithersburg, Md.) can be advantageously modified for making cDNA using random hexamers.) PCR is then performed using the following primers: […]
# (§1) (where β2 M represents β2 microglobulin). PCR was performed for β2 M experiments under a regime consisting of 1 cycle comprising denaturation at 94° C. for 3 minutes, primer annealing at 60° C. for 30 seconds, and primer extension at 72° C. for 1 minute, followed by 19 cycles comprising denaturation at 94° C. for 30 seconds, primer annealing at 60° C. for 30 seconds, and primer extension at 72° C. for 1 minute, followed by a final cycle comprising denaturation at 94° C. for 30 seconds, primer annealing at 60° C. for 30 seconds, and primer extension at 72° C. for 5 minutes. MDR1 cDNA sequences were amplified using the identical protocol as for β2 M, but extending the amplification from 19 cycles to 25 cycles. In addition, the cDNA-PCR amplification protocol contained the following modifications: (i) Taq DNA polymerase was added to the PCR mixtures after initial heating of the samples to 94° C. (ii) The yield of the β2 -microglobulin-specific band, obtained after 22-28 cycles of PCR, was used as the primary criterion for equalizing the starting amounts of the cDNA templates in different preparations, in order to account for differential RNA degradation in cells subjected to different types of treatment. […] PCR products were detected by autoradiography.
# Cells were plated in 6-well Falcon tissue culture plates at 3,300 cells per well, and incubated in the appropriate concentrations of drugs. Each of the protein kinase inhibitors to be tested were added at their appropriate final concentrations 45 minutes prior to MDR1 induction by the addition of Ara-C or TPA, with the exception of herbimycin A, which was added 12 hours prior to Ara-C or TPA, and tyrphostins A25 and B46, which were each added 16 hours prior to MDR1 induction by the addition of Ara-C or TPA. Cells were incubated overnight (TPA) or for 10 hours (Ara-C) at 37° C. under an atmosphere of 5% CO2 after the addition of the MDR1 inducing agents before harvesting for cDNA-PCR analysis.
# In addition to these conditions, the analysis of certain drugs imposed added requirements. For experiments using calphostin C, cells were incubated under direct white light illumination. For experiments using D,L-threo-sphingosine, the cell culture medium was pre-treated with the appropriate concentration of the drug for one hour at 37° C. with continuous gentle mixing. After this pre-treatment, cells were resuspended in media supplemented with drug and incubated for 45 minutes as described above.
# cDNA-PCR analyses on each culture treated with drugs, or in control cultures incubated in the absence or presence of Ara-C or TPA alone, were performed as described in Section 6.1.3 above.
# To further evaluate the capacity of protein kinase inhibitors to suppress MDR1 induction by cytotoxic drugs and PKC agonists, H-9 human T cell leukemia cells were used in cDNA-PCR assays to examine induced MDR1 mRNA expression levels in the presence of such protein kinase inhibitors.
# [2] = test system: H9 cells; assay: Cellular toxicity in H9 cells; settings: concentrations higher than 5 μM
# [3] = test system: protein kinases; settings: 10-fold weaker than H7; Pelosin et al., 1990; cited from earlier work
# [4] = test system: hormone-refractory prostate cancer; settings: continuous infusion, peak of 300 μg/ml at end of 14 days; cited from earlier work
# [5] = test system: MDR1; format: cell-based, human
# Protocol: (§2) Neomycin sulfate (Calbiochem) was dissolved in sterile, deionized water.
# (§3) P-glycoprotein expression on the cell surface was analyzed using a P-glycoprotein-specific mouse IgG2a monoclonal antibody (mAB) UIC2 (Mechetner and Roninson, 1992, Proc. Natl. Acad. Sci. USA 89:5824-5828). Mouse IgG2a isotype control antibody was obtained from Sigma. For staining of PBL with UIC2 mAB or isotype control, 10^6 cells were stained at 4° C. with 10 μg of the antibody for 30 minutes and, after two washes, stained for 30 minutes with 10 μg of FITC-conjugated goat anti-mouse IgG2a antibody (Fisher Scientific, Fairlawn, N.J.), diluted 1:2 with PBS plus 2% FCS. Cells were then washed twice with ice-cold PBS plus 2% FCS, stained with PI and kept on ice until analysis. Essentially the same protocol was used for staining of other cell types except that 2 μg of the secondary antibody were used per 10^6 cells. In some experiments, phycoerythrine (PE)-conjugated goat anti-mouse IgG2a was used as the secondary antibody; no PI was added in such cases. Flow cytometric analysis was conducted on a Coulter Epics 753 Flow Cytometer.
# (§4) RNA was extracted from approximately 10^6 cells by a small-scale sodium dodecyl sulfate extraction procedure (Peppel and Baglioni, 1990, BioTechniques 9:711-713). In the alternative, RNA was isolated from cells using the TRIzol method (commercially available from GIBCO/BRL). cDNA synthesis and polymerase chain reaction (PCR) amplification of MDR1 and β2 -microglobulin cDNA sequences were carried out essentially as described (Noonan et al., 1990, Proc. Natl. Acad. Sci. USA 87:7160-7164; Noonan and Roninson, 1991, pp. 319-333 In Roninson (Ed.), Molecular and Cellular Biology of Multidrug Resistance in Tumor Cells, Plenum Press, New York). Briefly, cDNA was prepared using the method of Krug and Berger (1987, Meth. Enzymol. 152: 316-324), with the modification that random hexamers were substituted for oligo(dT) as primers for cDNA synthesis. (Commercially-available kits (for example, from GIBCO/BRL, Gaithersburg, Md.) can be advantageously modified for making cDNA using random hexamers.) PCR is then performed using the following primers: […]
# as §1
# MDR1 gene expression was evaluated by a functional assay for Rh123
# [6] = target: P-glycoprotein (Homo sapiens, UniProt P08183); assay: Rh123 accumulation assay of P-glycoprotein activity in human PBL; settings: human PBL
# Sequence of P-glycoprotein (Homo sapiens, UniProt P08183) (P08183 whole entry): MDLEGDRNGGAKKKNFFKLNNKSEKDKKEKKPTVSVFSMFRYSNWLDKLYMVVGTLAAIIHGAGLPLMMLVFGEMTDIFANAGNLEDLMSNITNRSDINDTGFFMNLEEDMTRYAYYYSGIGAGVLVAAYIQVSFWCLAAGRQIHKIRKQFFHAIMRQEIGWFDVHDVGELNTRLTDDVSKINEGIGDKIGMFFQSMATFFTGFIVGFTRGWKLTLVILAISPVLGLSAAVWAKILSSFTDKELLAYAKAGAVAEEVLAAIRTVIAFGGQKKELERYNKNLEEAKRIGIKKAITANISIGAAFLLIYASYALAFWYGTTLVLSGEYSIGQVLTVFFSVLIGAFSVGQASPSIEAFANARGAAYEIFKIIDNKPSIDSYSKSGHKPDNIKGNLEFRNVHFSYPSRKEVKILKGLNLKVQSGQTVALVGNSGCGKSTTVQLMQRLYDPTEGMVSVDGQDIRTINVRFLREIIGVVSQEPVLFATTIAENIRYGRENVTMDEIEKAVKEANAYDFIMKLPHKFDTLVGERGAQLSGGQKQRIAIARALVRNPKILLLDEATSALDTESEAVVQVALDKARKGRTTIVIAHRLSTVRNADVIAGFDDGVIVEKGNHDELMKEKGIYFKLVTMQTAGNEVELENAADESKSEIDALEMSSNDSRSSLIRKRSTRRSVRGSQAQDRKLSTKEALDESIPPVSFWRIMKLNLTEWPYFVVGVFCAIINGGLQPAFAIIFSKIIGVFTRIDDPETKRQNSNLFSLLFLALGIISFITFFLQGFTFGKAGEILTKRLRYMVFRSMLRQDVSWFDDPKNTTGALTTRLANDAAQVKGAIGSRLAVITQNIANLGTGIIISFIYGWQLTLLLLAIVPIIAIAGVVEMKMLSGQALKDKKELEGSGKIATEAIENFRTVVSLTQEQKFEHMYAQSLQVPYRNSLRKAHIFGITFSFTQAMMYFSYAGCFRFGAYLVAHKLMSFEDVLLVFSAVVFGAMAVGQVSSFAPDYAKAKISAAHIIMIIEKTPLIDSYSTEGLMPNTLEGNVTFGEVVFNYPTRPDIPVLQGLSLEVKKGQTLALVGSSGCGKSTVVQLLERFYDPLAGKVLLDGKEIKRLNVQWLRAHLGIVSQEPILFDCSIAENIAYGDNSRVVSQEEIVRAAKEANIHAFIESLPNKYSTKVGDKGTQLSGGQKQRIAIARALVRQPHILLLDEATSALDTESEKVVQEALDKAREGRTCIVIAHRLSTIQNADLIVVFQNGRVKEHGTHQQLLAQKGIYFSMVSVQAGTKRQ
# Protocol: KG1 cell line was maintained in Iscove's modified Dulbecco medium with 20% fetal calf serum (FCS) and 2 mM L-glutamine, 100 units/ml penicillin and 100 μg/ml streptomycin (GIBCO Laboratories, Grand Island, N.Y.).
# A functional assay was used to detect changes in P-glycoprotein activity in human PBL treated with different agents that induce lymphoid differentiation or activation, based on flow cytometric analysis of cellular accumulation of Rh123, which is a P-glycoprotein-transported fluorescent mitochondrial dye. In this assay, cells expressing little or no P-glycoprotein stain brightly with Rh123, whereas cells with higher levels of P-glycoprotein activity appear Rh123-dull. […] Since the best-known cellular effect of TPA is the stimulation of PKC, it was also tested whether DOG, a cell-permeable diacylglycerol and a physiological stimulant of PKC, would have an effect on Rh123 accumulation in PBL.
# [7] = test system: P-glycoprotein; assay: UIC2 antibody staining of P-glycoprotein on the cell surface; format: cell-based; settings: human PBL
# Protocol: as §3
# To determine if the observed effect of PKC stimulants on P-glycoprotein activity could be due to an increase in P-glycoprotein expression, untreated and TPA-treated PBL were stained by indirect immunofluorescence labeling with a monoclonal antibody UIC2 that recognized an extracellular epitope of P-glycoprotein encoded by the human MDR1 gene. […]
# [8] = test system: MDR1; assay: cDNA-PCR / flow cytometric analysis of MDR1 induction by PKC agonists; format: cell-based, human
# Protocol: as §2, §3, §4, §1
# [9] = test system: MDR1; set-up: key to the marks not given beside the values
smiles,measurement,setting,value
"CCCCCCCCCCCCC/C=C/[C@H](O)[C@@H](N)CO (relative stereo) [D,L-threo-sphingosine]",inhibition of Ara-C induced MDR1 expression,[1],little or no capacity to inhibit Ara-C induced MDR1 expression; also recorded: ineffective in inhibiting Ara-C induced MDR1 expression
same,inhibition of Ara-C induced MDR1 expression,"[1]; H9 cells, 25 μM Ara-C 10 h",-
same,cellular toxicity,[2],higher concentrations induced cellular toxicity
CC1CN(S(=O)(=O)c2cccc3cnccc23)CCN1 (stereo not drawn) [IsoH7],inhibition of drug-induced MDR1 expression,[1]; IsoH7,No significant inhibition
same,effect on protein kinases relative to H7,[3],10 fold
Cc1ccc(C(=O)Nc2ccc(S(=O)(=O)O)c3cc(S(=O)(=O)O)cc(S(=O)(=O)O)c23)cc1NC(=O)c1cccc(NC(=O)Nc2cccc(C(=O)Nc3cc(C(=O)Nc4ccc(S(=O)(=O)O)c5cc(S(=O)(=O)O)cc(S(=O)(=O)O)c45)ccc3C)c2)c1 [suramin],activity in hormone-refractory prostate cancer,[4],shown activity in hormone-refractory prostate cancer
"CCCCCCCCCCCCCC(=O)O[C@@H]1[C@@H](C)[C@@]2(O)[C@@H](C=C(CO)C[C@]3(O)C(=O)C(C)=C[C@@H]23)[C@@H]2C(C)(C)[C@]12OC(C)=O [TPA, 12-o-tetradecanoylphorbol-13-acetate]","MDR1 expression, TPA-treated",[5],-
same,"MDR1 expression, TPA-treated",[5]; 0.001 ug/mL,++
same,"MDR1 expression, TPA-treated",[5]; 0.01 ug/mL,++
same,"MDR1 expression, TPA-treated",[5]; 0.1 ug/mL,+++
same,"MDR1 expression, TPA-treated","[5]; EJ (bladder carcinoma), untreated +, assay F",++
same,"MDR1 expression, TPA-treated","[5]; HT 1080 (fibrosarcoma), untreated -, assays F, R",-
same,"MDR1 expression, TPA-treated","[5]; MCF-7 (breast carcinoma), untreated -, assay R",+
same,"MDR1 expression, TPA-treated","[5]; Molt-4 (T-cell leukemia), untreated -, assay F",-
same,"MDR1 expression, TPA-treated","[5]; THP-1, untreated -, assay F",-
same,effect on P-glycoprotein activity (Rh123 accumulation),[6],significant increase in the number of Rh123-dull cells
same,P-glycoprotein on the cell surface,[7],markedly increased the levels of P-glycoprotein on the cell surface
same,increase of MDR1 expression,[8]; EJ bladder carcinoma cells,increase of MDR1 expression
same,induction of MDR1 mRNA and P-glycoprotein,[8]; H9 cells,clear-cut induction of MDR1 mRNA and P-glycoprotein
same,time after addition at which MDR1 mRNA became detectable,"[8]; H9 cells, TPA",2 h
same,time until which MDR1 mRNA continued to increase,"[8]; H9 cells, TPA",≥ 5 h
same,MDR1 expression induced by TPA alone,"[8]; H-9 cells, 10 ng/ml overnight",efficiently induced readily detectable MDR1 expression
same,induction of MDR1 mRNA and P-glycoprotein,[8]; K562 cells,clear-cut induction of MDR1 mRNA and P-glycoprotein
same,increase of MDR1 expression,[8]; MCF-7 breast carcinoma cells,increase of MDR1 expression
same,MDR1 mRNA levels,"[8]; human PBL, PCR",corresponding increase in MDR1 mRNA levels
same,"MDR1 expression, TPA-treated",[9],++
same,"MDR1 expression, TPA-treated","[9]; mouse FL4 (thymoma), untreated ++, assay F",+++
